Results: patent US7569724B2, “Carbamic acid compounds comprising an amide linkage as HDAC inhibitors” (Topotarget UK Limited, priority 2000, dated 2009)
Where a name gives a salt, the structure may show the parent alone. Read-outs that look alike come from different tables or passages of the source.

How the values were obtained:
[1] = tested on: HDAC (HeLa cell extract); experiment: Primary assay: deacetylase activity, HeLa cell extract as source of HDAC; format: biochemical, human; conditions: HeLa cell extract; for HDAC Inhibition HeLa, percent / percent HDAC inhibition at the stated concentration: @ 500 nM
Excerpt: Briefly, this assay relies on the release of radioactive acetate from a radioactively labelled histone fragment by the action of HDAC enzyme. Test compounds, which inhibit HDAC, reduce the yield of radioactive acetate. Signal (e.g., scintillation counts) measured in the presence and absence of a test compound provide an indication of that compound's ability to inhibit HDAC activity. Decreased activity indicates increased inhibition by the test compound.
The histone fragment was an N-terminal sequence from histone H4, and it was labelled with radioactively labelled acetyl groups using tritiated acetylcoenzyme A (coA) in conjunction with an enzyme which is the histone acetyltransferase domain of the transcriptional coactivator p300. […] The acetylated peptide was then separated from free acetyl coA by size exclusion chromatography on Sephadex G-15 (Sigma G-15-120), using distilled H2O as the mobile phase.
After purification of the radiolabelled histone fragment, it was incubated with a source of HDAC (e.g., an extract of HeLa cells (a rich source of HDAC), recombinantly produced HDAC1 or HDAC2) and any released acetate was extracted into an organic phase and quantitatively determined using scintillation counting. By including a test compound with the source of HDAC, that compound's ability to inhibit the HDAC was determined.
The HeLa cell extract was made from HeLa cells (ATCC Ref. No. CCL-2) by freeze-thawing three times in 60 mM TrisCl pH 8.0, 450 mM NaCl, 30% glycerol. Two cell volumes of extraction buffer were used, and particulate material was centrifuged out (20800 g, 4° C., 10 min). The supernatant extract having deacetylase activity was aliquotted and frozen for storage.
A source of HDAC (e.g., 2 μL of crude HeLa extract, 5 μL of HDAC1 or HDAC2; in elution buffer, as above) was incubated with 3 μL of radioactively labelled peptide along with appropriate dilutions of candidate compounds (1.5 μL) in a total volume of 150 μL of buffer (20 mM Tris pH 7.4, 10% glycerol). The reaction was carried out at 37° C. for one hour, after which the reaction was stopped by adding 20 μL of 1 M HCl/0.4 M sodium acetate. […] Radioactivity was measured using a Tri-Carb 2100TR Liquid Scintillation Analyzer (Packard).
Percent activity (% activity) for each test compound was calculated as: % activity={(S^C−B)/(S^o−B)}×100 wherein S^C denotes signal measured in the presence of enzyme and the compound being tested, S^o denotes signal measured in the presence of enzyme but in the absence of the compound being tested, and B denotes the background signal measured in the absence of both enzyme and compound being tested.

[2] = tested on: HeLa cells; experiment: Secondary assay: cell proliferation WST-1, HeLa; format: cell-based; conditions: Homo sapiens, 48 h, read-out: Cell Proliferation Inhibition WST-1 (IC50 unless otherwise specified) HeLa
Experimental: Compounds with HDAC inhibition activity, as determined using the primary assay, were subsequently evaluated using secondary cell-based assays. The following cell lines were used:
HeLa—Human cervical adenocarcinoma cell line (ATCC ref. No. CCL-2).
Cells were plated in 96-well plates at 3-10×10^3 cells/well in 100 μL of culture medium. The following day, different concentrations of candidate compounds were added and the cells incubated at 37° C. for 48 h. Subsequently, 10 μL/well of WST-1 reagent was added and the cells reincubated for 1 hour. After the incubation time, absorbance was measured.
WST-1 is a tetrazolium salt which is cleaved to formazan dye by cellular enzymes. An expansion in the number of viable cells results in an increase in the overall activity of mitochondrial dehydrogenases in the sample. This augmentation in the enzyme activity leads to an increase in the amount of formazan dye formed, which directly correlates to the number of metabolically active cells in the culture. The formazan dye produced is quantified by a scanning multiwell spectrophotometer by measuring the absorbance of the dye solution at 450 nm wavelength (reference wavelength 690 nm).
Percent activity (% activity) in reducing the number of viable cells was calculated for each test compound as: % activity={(S^C−B)/(S^o−B)}×100 wherein S^C denotes signal measured in the presence of the compound being tested, S^o denotes signal measured in the absence of the compound being tested, and B denotes the background signal measured in blank wells containing medium only.
IC50 values were calculated using the software package Prism 3.0 (GraphPad software Inc., San Diego, Calif.), setting top value at 100 and bottom value at 0.

[3] = read-out: HDAC Inhibition (IC50 unless otherwise specified) HeLa

O=C(/C=C/c1ccncc1)NCCCCCC(=O)NO (as salt: oxalate) [PX106521, (E)-N-(5-Hydroxycarbamoylpentyl)-3-pyridin-4-yl-acrylamide oxalate]
melting point: 168 to 170 °C

O=C(/C=C/c1ccccn1)NCCCCCC(=O)NO (as salt: oxalate) [PX106528, (E)-N-(5-Hydroxycarbamoylpentyl)-3-pyridin-2-yl-acrylamide oxalate]
melting point: 126 to 128 °C

O=C(/C=C/c1cccnc1)NCCCCCC(=O)NO (as salt: oxalate) [PX116231, E-N-(5-Hydroxycarbamoyl-pentyl)-3-pyridin-3-yl-acrylamide oxalate]
melting point: 157 to 159 °C

O=C(CCCCCNC(=O)CCc1ccco1)NO [PX105827, 6-(3-Furan-2-yl-propionylamino)-hexanoic acid hydroxyamide]
HDAC Inhibition HeLa, percent [1]: 34% @ 500 nM | percent HDAC inhibition at the stated concentration ([1]; comparative tables): 34% @ 500 nM | melting point: 127 to 128 °C

O=C(CCCCCNC(=O)Cc1ccc(-c2ccccc2)cc1)NO [PX106488, 6-(2-Biphenyl-4-yl-acetylamino)-hexanoic acid hydroxyamide]
HDAC Inhibition HeLa, percent [1]: 51% @ 500 nM | percent HDAC inhibition at the stated concentration ([1]; comparative tables): 51% @ 500 nM | melting point: 226 to 227 °C

O=C(CCCCNC(=O)c1ccc2ccccc2c1)NO [PX106492, Naphthalene-2-carboxylic acid (4-hydroxycarbamoyl-butyl)-amide]
HDAC Inhibition HeLa, percent [1]: 42% @ 500 nM | melting point: 155 to 156 °C

O=C(CCCCCNC(=O)c1ccc(I)cc1)NO [PX106494, N-(5-Hydroxycarbamoylpentyl)-4-iodobenzamide]
IC50 [1, 3]: 100 nM | melting point: 168 to 169 °C

O=C(CCCCCNC(=O)c1ccc([N+](=O)[O-])cc1)NO [PX106495, N-(5-Hydroxycarbamoylpentyl)-4-nitrobenzamide]
HDAC Inhibition HeLa, percent [1]: 34% @ 500 nM | melting point: 139.5 to 141 °C

N#Cc1ccc(C(=O)NCCCCCC(=O)NO)cc1 [PX106497, 4-Cyano-N-(5-hydroxycarbamoylpentyl)-benzamide]
HDAC Inhibition HeLa, percent [1]: 30% @ 500 nM | melting point: 234 to 236 °C

O=C(CCCCCNC(=O)CCc1ccccc1)NO [PX106516, 6-(3-Phenylpropionylamino)hexanoic acid hydroxyamide]
HDAC Inhibition HeLa, percent [1]: 27% @ 500 nM | melting point: 107 °C

COc1ccc(/C=C/C=C/C(=O)NCCCCCC(=O)NO)cc1 [PX106524, (2E,4E)-(4-Methoxyphenyl)penta-2,4-dienoic acid (5-hydroxycarbamoylpentyl)-amide]
HDAC Inhibition HeLa, percent [1]: 57% @ 500 nM | melting point: 152 to 154 °C

O=C(CCCCCNC(=O)C/C=C/c1ccccc1)NO [PX116211, (E)-N-[6-(Hydroxyamino)-6-oxohexyl]-4-phenyl-3-butenamide]
melting point: 127 to 128 °C

O=C(/C=C/c1cccc(NC(=O)CCCc2ccccc2)c1)NO [PX116212, (E)-N-Hydroxy-3-{3-[(4-phenylbutanoyl)amino]phenyl}-2-propenamide]
HDAC Inhibition HeLa, percent [1]: 72% @ 500 nM | melting point: 152 to 153 °C

COc1ccc(C(=O)NCCCCCC(=O)NO)cc1OC [PX116213, N-[6-(Hydroxyamino)-6-oxohexyl]-3,4-dimethoxybenzamide]
HDAC Inhibition HeLa, percent [1]: 48% @ 500 nM | melting point: 133 °C

O=C(CCCCCNC(=O)Cc1c[nH]c2ccccc12)NO [PX116214, 6-(2-1H-lndol-3-yl-acetylamino)-hexanoic acid hydroxyamide]
HDAC Inhibition HeLa, percent [1]: 35% @ 500 nM | melting point: 130 to 131.5 °C

O=C(CCCCCNC(=O)c1ccc(Br)cc1)NO [PX116215, 4-Bromo-N-(5-hydroxycarbamoyl-pentyl)-benzamide]
HDAC Inhibition HeLa, percent [1]: 70% @ 500 nM | melting point: 164 to 166 °C

O=C(CCCCC(=O)NCCc1c[nH]c2ccccc12)NO [PX116217, Hexanedioic acid hydroxyamide [2-(1H-indol-3-yl)-ethyl]-amide]
HDAC Inhibition HeLa, percent [1]: 17% @ 500 nM | melting point: 121 to 122.5 °C

O=C(CCCCCCC(=O)Nc1cccc2ccccc12)NO [PX116218, Octanedioic acid hydroxyamide naphthalen-1-ylamide]
IC50 [1, 3]: 33 nM | melting point: 115 to 116.5 °C

O=C(CCCCCNC(=O)c1ccc(Br)o1)NO [PX116221, 5-Bromo-furan-2-carboxylic acid (5-hydroxycarbamoyl-pentyl)-amide]
HDAC Inhibition HeLa, percent [1]: 72% @ 500 nM | melting point: 122 to 124 °C

O=C(CCCCCCC(=O)NCCc1cccc2ccccc12)NO [PX116224, Octanedioic acid hydroxyamide (2-naphthalen-1-yl-ethyl)-amide]
HDAC Inhibition HeLa, percent [1]: 78% @ 500 nM | melting point: 120 to 121.5 °C

O=C(/C=C/c1ccc(NC(=O)Cc2cccc3ccccc23)cc1)NO [PX116244, (E)-N-Hydroxy-3-(4-{[2-(1-naphthyl)acetyl]amino}phenyl)-2-propenamide]
IC50 [2]: < 310 nM | IC50 [1, 3]: 22 nM

O=C(/C=C/c1ccc(-c2cc(C(F)(F)F)cc(C(F)(F)F)c2)o1)NCCCCCC(=O)NO [PX117224, (E)-3-{5-[3,5-bis(trifluoromethyl)phenyl]-2-furyl}-N-[6-(hydroxyamino)-6-oxohexyl]2-propenamide]
IC50 [2]: 26000 nM | HDAC Inhibition HeLa, percent [1]: 81% @ 500 nM

O=C(/C=C/C=C/c1cccc2ccccc12)NCCCCCC(=O)NO [PX117237, (2E)(4E)-5-Naphthalen-1-yl-penta-2,4-dienoic acid (5-hydroxycarbamoylpentyl)amide]
IC50 [2]: 17000 nM | IC50 [1, 3]: 63 nM | IC50 ([1]; comparative tables, read-out: HeLa IC50): 63 nM

Cn1cccc1/C=C/C(=O)NCCCCCC(=O)NO [PX117239, E-3-(1-Methyl-1H-pyrrol-2-yl)-N-(5-hydroxycarbamoylpentyl)-acrylamide]
IC50 [2]: 10000 nM | HDAC Inhibition HeLa, percent [1]: 85% @ 500 nM

C/C(=C\C(=O)NCCCCCC(=O)NO)c1ccccc1 [PX117254, E-3-Phenylbut-2-enoic acid (5-hydroxycarbamoylpentyl)-amide]
IC50 [2]: 6600 nM | IC50 [1, 3]: 40 nM

O=C(/C=C/C=C/c1ccccc1Cl)NCCCCCC(=O)NO [PX117255, (2E)(4E)-5-(2-Chlorophenyl)penta-2,4-dienoic acid (5-hydroxycarbamoylpentyl)amide]
IC50 [2]: 18000 nM | IC50 [1, 3]: 50 nM

O=C(CCCCCCC(=O)NC(c1ccccc1)c1ccccc1)NO [PX117417, N^1-benzhydryl-N^8-hydroxyoctanediamide]
HDAC Inhibition HeLa, percent [1]: 56% @ 500 nM | melting point: 155 to 156.5 °C

O=C(CCCCCCC(=O)NCc1ccccc1)NO [PX117418, Octanedioic acid benzylamide hydroxyamide]
HDAC Inhibition HeLa, percent [1]: 39% @ 500 nM | melting point: 126 to 126.5 °C

O=C(CCCCCNC(=O)Cc1csc2ccccc12)NO [PX117442, 6-(2-Benzothiophen-3-yl-acetylamino)-hexanoic acid hydroxyamide]
HDAC Inhibition HeLa, percent [1]: 31% @ 500 nM | melting point: 113 to 115 °C
